According to PubChem BioAssay AID2060617 (Molecular Pharmacology Branch, DTP, NCI, 2025):

Tested on: 485368-065-R4-J2-PDC spheroids with HUVEC/MSC, viability
Assay: Anticancer human tumor 485368-065-R4-J2-PDC patient-derived pancreatic carcinoma cell line growth inhibition [CLK]
Conditions: for IC50: curve of first compound; for viability, T/C: stronger effect = lower value
How it was run: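 Patient-derived tumor cells grown as complex spheroids with HUVEC endothelial cells and mesenchymal stem cells, treated with drug combinations. Concentrations descend in half-log steps from near clinical Cmax, or from 10 microM if Cmax unknown.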

[1] = second compound 0.0316 µM, first compound 0.0316 µM
[2] = second compound 0.0316 µM, first compound 0.1 µM
[3] = second compound 0.0316 µM, first compound 0.316 µM
[4] = second compound 0.0316 µM, first compound 1 µM
[5] = second compound 0.0316 µM, first compound 3.16 µM
[6] = second compound 0.0316 µM, first compound 10 µM
[7] = second compound 0.1 µM, first compound 0.0316 µM
[8] = second compound 0.1 µM, first compound 0.1 µM
[9] = second compound 0.1 µM, first compound 0.316 µM
[10] = second compound 0.1 µM, first compound 1 µM
[11] = second compound 0.1 µM, first compound 3.16 µM
[12] = second compound 0.1 µM, first compound 10 µM
[13] = second compound 0.316 µM, first compound 0.0316 µM
[14] = second compound 0.316 µM, first compound 0.1 µM
[15] = second compound 0.316 µM, first compound 0.316 µM
[16] = second compound 0.316 µM, first compound 1 µM
[17] = second compound 0.316 µM, first compound 3.16 µM
[18] = second compound 0.316 µM, first compound 10 µM
[19] = second compound 1 µM, first compound 0.0316 µM
[20] = second compound 1 µM, first compound 0.1 µM
[21] = second compound 1 µM, first compound 0.316 µM
[22] = second compound 1 µM, first compound 1 µM
[23] = second compound 1 µM, first compound 3.16 µM
[24] = second compound 1 µM, first compound 10 µM
[25] = second compound 3.16 µM, first compound 0.0316 µM
[26] = second compound 3.16 µM, first compound 0.1 µM
[27] = second compound 3.16 µM, first compound 0.316 µM
[28] = second compound 3.16 µM, first compound 1 µM
[29] = second compound 3.16 µM, first compound 3.16 µM
[30] = second compound 3.16 µM, first compound 10 µM
[31] = second compound 10 µM, first compound 0.0316 µM
[32] = second compound 10 µM, first compound 0.1 µM
[33] = second compound 10 µM, first compound 0.316 µM
[34] = second compound 10 µM, first compound 1 µM
[35] = second compound 10 µM, first compound 3.16 µM
[36] = second compound 10 µM, first compound 10 µM
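Note: spheroids exposed to compounds for seven days.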
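Throughout, for viability, T/C: 100% = DMSO vehicle control wells.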

## COc1ccc([C@@H](O)c2cc(-c3ncnc4cc(N5CCOCC5)ccc34)c(F)cc2Cl)nn1 + CNC(=O)c1ccc(Nc2nc(OC3CCCC3)c3c(-c4ccc5nc(C)oc5c4)c[nH]c3n2)c(OC)c1
Second compound 0.0316 µM
  IC50: > 10000 nM
Second compound 0.1 µM
  IC50: > 10000 nM
Second compound 0.316 µM
  IC50: > 10000 nM
Second compound 1 µM
  IC50: > 10000 nM
Second compound 3.16 µM
  IC50: > 10000 nM
Second compound 10 µM
  IC50: > 10000 nM
[1]
  viability, T/C: 84.1%
[2]
  viability, T/C: 96.7%
[3]
  viability, T/C: 96.1%
[4]
  viability, T/C: 103%
[5]
  viability, T/C: 122%
[6]
  viability, T/C: 83.7%
[7]
  viability, T/C: 86.5%
[8]
  viability, T/C: 99.7%
[9]
  viability, T/C: 95.1%
[10]
  viability, T/C: 103%
[11]
  viability, T/C: 96.6%
[12]
  viability, T/C: 87.6%
[13]
  viability, T/C: 82.2%
[14]
  viability, T/C: 77.8%
[15]
  viability, T/C: 86.6%
[16]
  viability, T/C: 73.6%
[17]
  viability, T/C: 81.5%
[18]
  viability, T/C: 66.5%
[19]
  viability, T/C: 69.8%
[20]
  viability, T/C: 70.9%
[21]
  viability, T/C: 72.1%
[22]
  viability, T/C: 67.6%
[23]
  viability, T/C: 65.5%
[24]
  viability, T/C: 59.2%
[25]
  viability, T/C: 68.3%
[26]
  viability, T/C: 62.7%
[27]
  viability, T/C: 68.8%
[28]
  viability, T/C: 57%
[29]
  viability, T/C: 54.9%
[30]
  viability, T/C: 51.4%
[31]
  viability, T/C: 63.7%
[32]
  viability, T/C: 70.4%
[33]
  viability, T/C: 65.4%
[34]
  viability, T/C: 57.5%
[35]
  viability, T/C: 54.8%
[36]
  viability, T/C: 50.1%

## COc1cccc2c1C(=O)c1c(O)c3c(c(O)c1C2=O)CC(O)(C(=O)CO)CC3OC1CC(N)C(O)C(C)O1 (centres undefined) + CNC(=O)c1ccc(Nc2nc(OC3CCCC3)c3c(-c4ccc5nc(C)oc5c4)c[nH]c3n2)c(OC)c1
Second compound 0.0316 µM
  IC50: 445 nM
Second compound 0.1 µM
  IC50: 406 nM
Second compound 0.316 µM
  IC50: 270 nM
Second compound 1 µM
  IC50: 156 nM
Second compound 3.16 µM
  IC50: 136 nM
Second compound 10 µM
  IC50: 111 nM
[1]
  viability, T/C: 89.3%
[2]
  viability, T/C: 94.2%
[3]
  viability, T/C: 56.9%
[4]
  viability, T/C: 31.6%
[5]
  viability, T/C: 8.22%
[6]
  viability, T/C: 23.9%
[7]
  viability, T/C: 101%
[8]
  viability, T/C: 100%
[9]
  viability, T/C: 55.9%
[10]
  viability, T/C: 26.9%
[11]
  viability, T/C: 7.71%
[12]
  viability, T/C: 22.3%
[13]
  viability, T/C: 101%
[14]
  viability, T/C: 86.2%
[15]
  viability, T/C: 45%
[16]
  viability, T/C: 18.6%
[17]
  viability, T/C: 6.61%
[18]
  viability, T/C: 25.7%
[19]
  viability, T/C: 91%
[20]
  viability, T/C: 66%
[21]
  viability, T/C: 25.1%
[22]
  viability, T/C: 11.3%
[23]
  viability, T/C: 6.11%
[24]
  viability, T/C: 23.9%
[25]
  viability, T/C: 76.6%
[26]
  viability, T/C: 61.7%
[27]
  viability, T/C: 17.9%
[28]
  viability, T/C: 8.87%
[29]
  viability, T/C: 6.5%
[30]
  viability, T/C: 15.5%
[31]
  viability, T/C: 76.6%
[32]
  viability, T/C: 53.4%
[33]
  viability, T/C: 17.2%
[34]
  viability, T/C: 7.28%
[35]
  viability, T/C: 7.64%
[36]
  viability, T/C: 17.4%
